Assay results as given in patent US9695155B2, “Herbicidal substituted pyrimidinyloxy benzene compounds” (E. I. DU PONT DE NEMOURS AND COMPANY, priority 2013, dated 2017).

How the values were obtained:
[1] = tested on: oilseed rape; experiment: Test C postemergence; format: in vivo, Brassica napus
From the text: (§1) Seeds of plant species selected from blackgrass (Alopecurus myosuroides), Italian ryegrass (Lolium multiflorum), wheat, winter (winter wheat, Triticum aestivum), galium (catchweed bedstraw, Galium aparine), corn (Zea mays), large (Lg) crabgrass (Digitaria sanguinalis), giant foxtail (Setaria faberii), johnsongrass (Sorghum halepense), lambsquarters (Chenopodium album), morningglory (Ipomoea coccinea), yellow nutsedge (Cyperus esculentus), pigweed (Amaranthus retroflexus), ragweed (common ragweed, Ambrosia elatior), soybean (Glycine max), barnyardgrass (Echinochloa crus-galli), oilseed rape (Brassica napus), waterhemp (common waterhemp, Amaranthus rudis), kochia (Kochia scoparia), wild oat (Avena fatua), surinam grass (Brachiaria decumbens), foxtail, green (green foxtail, Setaria viridis), goosegrass (Eleusine indica), bromegrass, downy (downy bromegrass, Bromus tectorum), nightshade (eastern black nightshade, Solanum ptycanthum), cocklebur (common cocklebur, Xanthium strumarium), cupgrass, woolly (woolly cupgrass, Eriochloa villosa), bermudagrass (Cynodon dactylon), sunflower, (common oilseed sunflower, Helianthus annuus), Russian thistle (Salsola kali), and velvetleaf (Abutilon theophrasti) were planted into a blend of loam soil and sand and treated preemergence with test chemicals formulated in a non-phytotoxic solvent mixture which included a surfactant.
(§2) At the same time, plants selected from these crop and weed species and also barley, winter (winter barley, Hordeum vulgare), windgrass (Apera spica-venti), chickweed (common chickweed, Stellaria media), deadnettle (henbit deadnettle, Lamium amplexicaule), and canarygrass (littleseed canarygrass, Phalaris minor) were planted in pots containing Redi-Earth® planting medium (Scotts Company, 14111 Scottslawn Road, Marysville, Ohio 43041) comprising spaghnum peat moss, vermiculite, wetting agent and starter nutrients and treated with postemergence applications of test chemicals formulated in the same manner. Plants ranged in height from 2 to 18 cm (1- to 4-leaf stage) for postemergence treatments. Treated plants and controls were maintained in a greenhouse for 13 to 15 days, after which time all species were compared to controls and visually evaluated. Plant response ratings, summarized in Table C, are based on a scale of 0 to 100 where 0 is no effect and 100 is complete control. A dash (-) response means no test result.

[2] = tested on: velvetleaf; experiment: Test C postemergence; format: in vivo, Abutilon theophrasti
Outline: (§3)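 Injury was assessed visually against controls 13 to 15 days after application, with 0 meaning no effect and 100 full control; missing entries are shown as a dash. Preemergence sprays hit seeded loam–sand soil, postemergence sprays hit 1- to 4-leaf plants.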

[3] = tested on: pigweed; experiment: Test A preemergence; format: in vivo, Amaranthus retroflexus; settings: for Pigweed plant response rating: 500 g ai/ha
Outline: (§4)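 Pre- and postemergence greenhouse screen. Soil: loam + sand. Spray carrier: solvent mixture, non-phytotoxic, with surfactant. Post timing at 1–2 leaves, height 2–10 cm. Readout: visual injury on a 0–100 scale roughly 10 days after application, untreated plants as reference.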

[4] = tested on: pigweed; experiment: Test C postemergence; format: in vivo, Amaranthus retroflexus
Outline: as §3

[5] = tested on: galium; experiment: Test C postemergence; format: in vivo, Galium aparine
Outline: as §3

[6] = tested on: corn; experiment: Test A postemergence; format: in vivo, Zea mays
Outline: as §4

[7] = tested on: ragweed; experiment: Test C postemergence; format: in vivo, Ambrosia elatior
Outline: as §3

[8] = tested on: wheat; experiment: Test A postemergence; format: in vivo, Triticum aestivum
Outline: as §4

[9] = tested on: giant foxtail; experiment: Test C preemergence; format: in vivo, Setaria faberii; settings: for Foxtail, Giant plant response rating: preemergence; for Plant response rating, Foxtail, Giant: Preemergence, scale 0 to 100, 0 no effect, 100 complete control
Outline: as §3

[10] = tested on: velvetleaf; experiment: Test A preemergence; format: in vivo, Abutilon theophrasti; settings: for Velvetleaf plant response rating: 500 g ai/ha
Outline: as §4

[11] = tested on: waterhemp; experiment: Test C preemergence; format: in vivo, Amaranthus rudis; settings: for Waterhemp plant response rating: preemergence; for Plant response rating, Waterhemp: Preemergence, scale 0 to 100, 0 no effect, 100 complete control
From the text: as §1, §2

[12] = tested on: ragweed; experiment: Test C preemergence; format: in vivo, Ambrosia elatior; settings: for Ragweed plant response rating: preemergence; for Plant response rating, Ragweed: Preemergence, scale 0 to 100, 0 no effect, 100 complete control
Outline: as §3

[13] = tested on: large (Lg) crabgrass; experiment: Test A preemergence; format: in vivo, Digitaria sanguinalis; settings: for Crabgrass, Large plant response rating: 500 g ai/ha
Outline: as §4

[14] = tested on: morningglory; experiment: Test A preemergence; format: in vivo, Ipomoea spp.; settings: for Morningglory plant response rating: 500 g ai/ha
Outline: as §4

[15] = tested on: soybean; experiment: Test C preemergence; format: in vivo, Glycine max; settings: for Soybean plant response rating: preemergence; for Plant response rating, Soybean: Preemergence, scale 0 to 100, 0 no effect, 100 complete control
Outline: as §3

[16] = tested on: johnsongrass; experiment: Test C preemergence; format: in vivo, Sorghum halepense; settings: for Johnsongrass plant response rating: preemergence; for Plant response rating, Johnsongrass: Preemergence, scale 0 to 100, 0 no effect, 100 complete control
Outline: as §3

[17] = 31 g ai/ha, postemergence, visual rating, scale 0 to 100 (0 no effect, 100 complete control), 13 to 15 days
[18] = 125 g ai/ha, postemergence, visual rating, scale 0 to 100 (0 no effect, 100 complete control)
[19] = Postemergence, 62 g ai/ha, scale 0 to 100 (0 no effect, 100 complete control), 13 to 15 days
[20] = 0 to 100 scale where 0 is no effect and 100 is complete control
[21] = 125 g ai/ha, 0 to 100 scale, 0 no effect, 100 complete control
[22] = 500 g ai/ha, 0 to 100 scale where 0 is no effect and 100 is complete control
[23] = 16 g ai/ha, scale 0 to 100 (0 no effect, 100 complete control)
[24] = 125 g ai/ha, scale 0 (no effect) to 100 (complete control)
[25] = 125 g ai/ha, 0 to 100 scale where 0 is no effect and 100 is complete control
[26] = 62 g ai/ha, scale 0 (no effect) to 100 (complete control)
[27] = 0 to 100 scale, 0 no effect, 100 complete control, approx. 10 days
[28] = 31 g ai/ha, 0 to 100 scale, 0 no effect, 100 complete control

Compound: N#Cc1cccc(Oc2ncc(Cl)cn2)c1-n1cc(-n2ccc(C(F)(F)F)n2)cn1 [Compound 284]
- Oilseed Rape plant response rating [1, 17]: 70
- Plant response rating, Oilseed Rape [1, 18]: 80
- Plant response rating (0 to 100), Oilseed Rape ([1]; 250 g ai/ha, postemergence): 80
- Plant response rating, Oilseed Rape [1, 19]: 70
- Velvetleaf plant response rating [2, 17]: 15
- Plant response rating, Velvetleaf [2, 18]: 30
- Plant response rating (0 to 100), Velvetleaf ([2]; 250 g ai/ha, postemergence): 70
- Plant response rating, Velvetleaf [2, 19]: 15
- Pigweed plant response rating (0 to 100 scale) ([3]; 125 g ai/ha): 100
- Pigweed plant response rating [3, 20]: 100
- Pigweed plant response rating [4, 17]: 98
- Plant response rating, Pigweed [4, 18]: 100
- Plant response rating (0 to 100), Pigweed ([4]; 250 g ai/ha, postemergence): 100
- Plant response rating, Pigweed [4, 19]: 98
- Galium plant response rating [5, 17]: 100
- Plant response rating, Galium [5, 18]: 85
- Plant response rating (0 to 100), Galium ([5]; 250 g ai/ha, postemergence): 100
- Plant response rating, Galium [5, 19]: 85
- Plant response rating, Corn [6, 21]: 20
- Plant response rating, Corn [6, 22]: 40
- Ragweed plant response rating [7, 17]: 55
- Plant response rating, Ragweed [7, 18]: 50
- Plant response rating (0 to 100), Ragweed ([7]; 250 g ai/ha, postemergence): 80
- Plant response rating, Ragweed [7, 19]: 55
- Plant response rating, Wheat [8, 21]: 20
- Plant response rating, Wheat [8, 22]: 20

Compound: CCOc1cnn(-c2ccccc2Oc2ncc(Cl)cn2)c1 [Compound 187]
- Pigweed plant response rating (0 to 100 scale) ([3]; 125 g ai/ha): 100
- Pigweed plant response rating [3, 20]: 100
- Foxtail, Giant plant response rating [9, 23]: 0
- Foxtail, Giant plant response rating [9, 24]: 85
- Plant response rating, Foxtail, Giant ([9]; 62 g ai/ha): 85
- Velvetleaf plant response rating (0 to 100 scale) ([10]; 125 g ai/ha): 80
- Velvetleaf plant response rating [10, 20]: 100
- Waterhemp plant response rating [11, 23]: 25
- Waterhemp plant response rating [11, 24]: 95
- Plant response rating, Waterhemp ([11]; 62 g ai/ha): 85
- Ragweed plant response rating [12, 23]: 55
- Ragweed plant response rating [12, 24]: 55
- Plant response rating, Ragweed ([12]; 62 g ai/ha): 45
- Corn plant response rating [6, 25]: 10
- Plant response rating, Corn [6, 22]: 70
- Crabgrass, Large plant response rating (0 to 100 scale) ([13]; 125 g ai/ha): 100
- Crabgrass, Large plant response rating [13, 20]: 100
- Wheat plant response rating [8, 25]: 20
- Plant response rating, Wheat [8, 22]: 60
- Morningglory plant response rating (0 to 100 scale) ([14]; 125 g ai/ha): 0
- Morningglory plant response rating [14, 20]: 50
- Soybean plant response rating [15, 23]: 5
- Soybean plant response rating [15, 24]: 85
- Plant response rating, Soybean ([15]; 62 g ai/ha): 55
- Johnsongrass plant response rating [16, 23]: 0
- Johnsongrass plant response rating [16, 24]: 45
- Plant response rating, Johnsongrass ([16]; 62 g ai/ha): 30

Compound: Fc1cccc(Oc2ncc(Cl)cn2)c1-n1cc(I)cn1 [Compound 179]
- Pigweed plant response rating (0 to 100 scale) ([3]; 125 g ai/ha): 100
- Pigweed plant response rating [3, 20]: 100
- Foxtail, Giant plant response rating [9, 23]: 40
- Foxtail, Giant plant response rating [9, 26]: 100
- Foxtail, Giant plant response rating [9, 24]: 100
- Plant response rating, Foxtail, Giant ([9]; 31 g ai/ha): 85
- Velvetleaf plant response rating (0 to 100 scale) ([10]; 125 g ai/ha): 60
- Velvetleaf plant response rating [10, 20]: 80
- Waterhemp plant response rating [11, 23]: 90
- Waterhemp plant response rating [11, 26]: 98
- Waterhemp plant response rating [11, 24]: 100
- Ragweed plant response rating [12, 23]: 0
- Ragweed plant response rating [12, 26]: 0
- Ragweed plant response rating [12, 24]: 10
- Corn plant response rating [6, 25]: 30
- Plant response rating, Corn [6, 22]: 60
- Plant response rating, Crabgrass, Large [13, 25]: 100
- Crabgrass, Large plant response rating [13, 20]: 100
- Wheat plant response rating [8, 25]: 30
- Plant response rating, Wheat [8, 22]: 60
- Morningglory plant response rating (0 to 100 scale) ([14]; 125 g ai/ha): 10
- Morningglory plant response rating [14, 20]: 80
- Soybean plant response rating [15, 23]: 0
- Soybean plant response rating [15, 26]: 45
- Soybean plant response rating [15, 24]: 65
- Johnsongrass plant response rating [16, 23]: 0
- Johnsongrass plant response rating [16, 26]: 65
- Johnsongrass plant response rating [16, 24]: 98

Compound: Fc1cnc(Oc2cccc(C(F)F)c2-n2cc(Br)cn2)nc1 [Compound 112]
- Plant response rating, Pigweed [3, 25]: 100
- Pigweed plant response rating [3, 27]: 100
- Foxtail, Giant plant response rating [9, 23]: 15
- Foxtail, Giant plant response rating [9, 26]: 100
- Foxtail, Giant plant response rating [9, 24]: 100
- Plant response rating, Foxtail, Giant ([9]; 31 g ai/ha): 85
- Plant response rating, Velvetleaf [10, 25]: 90
- Waterhemp plant response rating [11, 23]: 90
- Waterhemp plant response rating [11, 26]: 100
- Waterhemp plant response rating [11, 24]: 100
- Plant response rating, Waterhemp ([11]; 31 g ai/ha): 98
- Ragweed plant response rating [12, 23]: 0
- Ragweed plant response rating [12, 26]: 35
- Ragweed plant response rating [12, 24]: 100
- Plant response rating, Ragweed ([12]; 31 g ai/ha): 0
- Plant response rating, Corn [6, 25]: 30
- Plant response rating, Corn [6, 22]: 70
- Plant response rating, Crabgrass, Large [13, 25]: 100
- Crabgrass, Large plant response rating [13, 27]: 100
- Plant response rating, Wheat [8, 22]: 70
- Plant response rating, Morningglory [14, 25]: 80
- Morningglory plant response rating [14, 27]: 90
- Soybean plant response rating [15, 23]: 10
- Soybean plant response rating [15, 26]: 50
- Soybean plant response rating [15, 24]: 95
- Plant response rating, Soybean ([15]; 31 g ai/ha): 35
- Johnsongrass plant response rating [16, 23]: 0
- Johnsongrass plant response rating [16, 26]: 20
- Johnsongrass plant response rating [16, 24]: 40
- Plant response rating, Johnsongrass ([16]; 31 g ai/ha): 5

Compound: N#Cc1cnn(-c2c(CF)cccc2Oc2ncc(F)cn2)c1 [Compound 151]
- Plant response rating, Pigweed ([3]; 31 g ai/ha, 0 to 100 scale where 0 is no effect and 100 is complete control, visual, approximately 10 days): 90
- Plant response rating, Pigweed [3, 25]: 90
- Foxtail, Giant plant response rating [9, 23]: 5
- Foxtail, Giant plant response rating [9, 26]: 80
- Foxtail, Giant plant response rating [9, 24]: 100
- Plant response rating, Foxtail, Giant ([9]; 31 g ai/ha): 35
- Waterhemp plant response rating [11, 23]: 95
- Waterhemp plant response rating [11, 26]: 100
- Waterhemp plant response rating [11, 24]: 100
- Ragweed plant response rating [12, 23]: 55
- Ragweed plant response rating [12, 26]: 85
- Ragweed plant response rating [12, 24]: 100
- Plant response rating, Corn [6, 28]: 0
- Corn plant response rating [6, 25]: 40
- Plant response rating, Wheat [8, 28]: 20
- Wheat plant response rating [8, 25]: 30
- Soybean plant response rating [15, 23]: 35
- Soybean plant response rating [15, 26]: 85
- Soybean plant response rating [15, 24]: 95
- Johnsongrass plant response rating [16, 23]: 0
- Johnsongrass plant response rating [16, 26]: 50
- Johnsongrass plant response rating [16, 24]: 65
